Test results published in US11753407B2, “Compounds for treating spinal muscular atrophy” (PTC Therapeutics, Inc., priority 2012, dated 2023).

What was measured:
[1] = system: SMN2 minigene mRNA (SMN2-A minigene) in HEK293H cells; test: SMN2 minigene mRNA splicing RT-qPCR assay in cultured cells; format: cell-based, human; conditions: Homo sapiens, HEK293-H; concentration increasing full length SMN2 mRNA 1.5-fold relative to vehicle-treated cells; HEK293H cells with SMN2-A minigene, 24 hours, 7-point concentration data; read-out: EC1.5x for production of full length SMN2 mRNA
Method in brief: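 Read-out: minigene-specific full-length (exon 7-included) SMN2 mRNA by one-step multiplex RT-qPCR, normalized to GAPDH and divided by vehicle-treated level. Stable SMN2-A minigene HEK293H cells, 24 h compound exposure, 7 concentrations in duplicate. EC1.5× = concentration raising FL mRNA 1.5-fold.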

[2] = system: Smn protein in SMA patient fibroblast cells (GM03813); test: Smn protein assay in cultured cells (SMN HTRF); format: cell-based, human; conditions: SMA patient fibroblast cells, 48 hours; for EC1.5x for Smn protein expression: 7-point concentration curve, SMN HTRF, concentration producing 1.5 times Smn protein vs DMSO vehicle control; for maximum fold (Fold) increase of Smn protein: 7-point concentration data, fold relative to vehicle control
Method in brief: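 Read-out: HTRF 665/620 nm ratio, blank-subtracted as ΔF, then expressed as fold over DMSO vehicle. Fibroblasts from SMA patients were exposed to compounds for 48 h (7 points, 3.16-fold steps, triplicates). Values are EC1.5× and maximum fold Smn increase.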

| Structure (SMILES) | melting point [°C] | EC (1.5-fold increase) [1] [µM] | EC1.5x for Smn protein expression [2] | maximum fold (Fold) increase of Smn protein [2] |
| --- | --- | --- | --- | --- |
| Cn1cc2cc(-c3cc(=O)n4cc(C5CCN(CCO)CC5)ncc4n3)ccc2n1 [Compound 569, 7-[1-(2-hydroxyethyl)piperidin-4-yl]-2-(2-methyl-2H-indazol-5-yl)-4H-pyrazino[1,2-a]pyrimidin-4-one] | 230 to 232 | < 0.1 | **** (an EC1.5x≤0.3 μM is indicated by four stars (****)) | ***** (a fold increase >1.65 is indicated by five stars (*****)) |
| Cc1cn2nc(-c3cc(=O)n4cc(N5CCC(CN(C)C)CC5)ccc4n3)cc2c(C)n1 [Compound 570, 7-{4-[(dimethylamino)methyl]piperidin-1-yl}-2-(4,6-dimethylpyrazolo[1,5-a]pyrazin-2-yl)-4H-pyrido[1,2-a]pyrimidin-4-one] | 206 to 208 | 0.3 to 1 | ** (an EC1.5× between >1 μM and ≤3 μM is indicated by two stars (**)) | **** (a fold increase between >1.5 and ≤1.65 is indicated by four stars (****)) |
| Cc1cn2nc(-c3cc(=O)n4cc(N5CCC(CN6CCCC6)CC5)ccc4n3)cc2c(C)n1 [Compound 571, 2-(4,6-dimethylpyrazolo[1,5-a]pyrazin-2-yl)-7-[4-(pyrrolidin-1-ylmethyl)piperidin-1-yl]-4H-pyrido[1,2-a]pyrimidin-4-one] | 177 to 180 | 0.3 to 1 | ** (an EC1.5× between >1 μM and ≤3 μM is indicated by two stars (**)) | **** (a fold increase between >1.5 and ≤1.65 is indicated by four stars (****)) |
| Cc1cn2nc(-c3cc(=O)n4cc(N5CCC(CN6CCCCC6)CC5)ccc4n3)cc2c(C)n1 [Compound 572, 2-(4,6-dimethylpyrazolo[1,5-a]pyrazin-2-yl)-7-[4-(piperidin-1-ylmethyl)piperidin-1-yl]-4H-pyrido[1,2-a]pyrimidin-4-one] | 192 to 195 | 0.3 to 1 | ** (an EC1.5× between >1 μM and ≤3 μM is indicated by two stars (**)) | **** (a fold increase between >1.5 and ≤1.65 is indicated by four stars (****)) |
| COc1ccc(-c2cc(=O)n3cc(N4CCC(CN(C)C)CC4)ccc3n2)cc1OC [Compound 573, 2-(3,4-dimethoxyphenyl)-7-{4-[(dimethylamino)methyl]piperidin-1-yl}-4H-pyrido[1,2-a]pyrimidin-4-one] | 182 to 184 | 0.3 to 1 | ** (an EC1.5× between >1 μM and ≤3 μM is indicated by two stars (**)) | **** (a fold increase between >1.5 and ≤1.65 is indicated by four stars (****)) |
| COc1ccc(-c2cc(=O)n3cc(N4CCC(CN5CCCC5)CC4)ccc3n2)cc1OC [Compound 574, 2-(3,4-dimethoxyphenyl)-7-[4-(pyrrolidin-1-ylmethyl)piperidin-1-yl]-4H-pyrido[1,2-a]pyrimidin-4-one] | 194 to 196 | 0.3 to 1 | – | ** (a fold increase between >1.2 and ≤1.35 is indicated by two stars (**)) |
| COc1ccc(-c2cc(=O)n3cc(N4CCC(CN5CCCCC5)CC4)ccc3n2)cc1OC [Compound 575, 2-(3,4-dimethoxyphenyl)-7-[4-(piperidin-1-ylmethyl)piperidin-1-yl]-4H-pyrido[1,2-a]pyrimidin-4-one] | 184 to 186 | 0.3 to 1 | – | *** (a fold increase between >1.35 and ≤1.5 is indicated by three stars (***)) |
| Cc1cn2cc(-c3cc(=O)n4cc(C5CCN(CCO)CC5)ccc4n3)ccc2n1 [Compound 576, 7-[1-(2-hydroxyethyl)piperidin-4-yl]-2-(2-methylimidazo[1,2-a]pyridin-6-yl)-4H-pyrido[1,2-a]pyrimidin-4-one] | 200 to 202 | < 0.1 | **** (an EC1.5x≤0.3 μM is indicated by four stars (****)) | ***** (a fold increase >1.65 is indicated by five stars (*****)) |
| Cc1cn2cc(-c3cc(=O)n4cc(C5=CCN(CCO)CC5)ccc4n3)ccc2n1 [Compound 577, 7-[1-(2-hydroxyethyl)-1,2,3,6-tetrahydropyridin-4-yl]-2-(2-methylimidazo[1,2-a]pyridin-6-yl)-4H-pyrido[1,2-a]pyrimidin-4-one] | 248 to 250 | < 0.1 | **** (an EC1.5x≤0.3 μM is indicated by four stars (****)) | ***** (a fold increase >1.65 is indicated by five stars (*****)) |
| CN1CCC(c2ccc3nc(-c4ccc5nn(C)cc5c4)cc(=O)n3c2)CC1 [Compound 578, 2-(2-methyl-2H-indazol-5-yl)-7-(1-methylpiperidin-4-yl)-4H-pyrido[1,2-a]pyrimidin-4-one] | 256 to 258 | < 0.1 | **** (an EC1.5x≤0.3 μM is indicated by four stars (****)) | ***** (a fold increase >1.65 is indicated by five stars (*****)) |
| Cc1cn2cc(-c3cc(=O)n4cc(C5CCN(C)CC5)ncc4n3)ccc2n1 [Compound 579, 2-(2-methylimidazo[1,2-a]pyridin-6-yl)-7-(1-methylpiperidin-4-yl)-4H-pyrazino[1,2-a]pyrimidin-4-one] | 277 to 280 | 0.1 to 0.3 | *** (an EC1.5× between >0.3 μM and ≤1 μM is indicated by three stars (***)) | ***** (a fold increase >1.65 is indicated by five stars (*****)) |
| CCN1CCC(c2cn3c(=O)cc(-c4ccc5nc(C)cn5c4)nc3cn2)CC1 [Compound 580, 7-(1-ethylpiperidin-4-yl)-2-(2-methylimidazo[1,2-a]pyridin-6-yl)-4H-pyrazino[1,2-a]pyrimidin-4-one] | 255 to 258 | < 0.1 | *** (an EC1.5× between >0.3 μM and ≤1 μM is indicated by three stars (***)) | ***** (a fold increase >1.65 is indicated by five stars (*****)) |
| Cc1cn2cc(-c3cc(=O)n4cc(C5CCN(CCO)CC5)ncc4n3)ccc2n1 [Compound 581, 7-[1-(2-hydroxyethyl)piperidin-4-yl]-2-(2-methylimidazo[1,2-a]pyridin-6-yl)-4H-pyrazino[1,2-a]pyrimidin-4-one] | 250 to 252 | 0.1 to 0.3 | *** (an EC1.5× between >0.3 μM and ≤1 μM is indicated by three stars (***)) | ***** (a fold increase >1.65 is indicated by five stars (*****)) |
| Cc1cn2nc(-c3cc(=O)n4cc(N5CCC(N(C)CCO)CC5)cc(C)c4n3)cc2c(C)n1 [Compound 582, 2-(4,6-dimethylpyrazolo[1,5-a]pyrazin-2-yl)-7-{4-[(2-hydroxyethyl)(methyl)amino]piperidin-1-yl}-9-methyl-4H-pyrido[1,2-a]pyrimidin-4-one] | 250 to 259 | < 0.1 | **** (an EC1.5x≤0.3 μM is indicated by four stars (****)) | ***** (a fold increase >1.65 is indicated by five stars (*****)) |
| CCCNC1CCN(c2cc(C)c3nc(-c4cc5c(C)nc(C)cn5n4)cc(=O)n3c2)CC1 [Compound 583, 2-(4,6-dimethylpyrazolo[1,5-a]pyrazin-2-yl)-9-methyl-7-[4-(propylamino)piperidin-1-yl]-4H-pyrido[1,2-a]pyrimidin-4-one] | 231 to 241 | < 0.1 | **** (an EC1.5x≤0.3 μM is indicated by four stars (****)) | ***** (a fold increase >1.65 is indicated by five stars (*****)) |
| Cc1cn2nc(-c3cc(=O)n4cc(N5CCC(C)(N)CC5)ccc4n3)cc2c(C)n1 [Compound 584, 7-(4-amino-4-methylpiperidin-1-yl)-2-(4,6-dimethylpyrazolo[1,5-a]pyrazin-2-yl)-4H-pyrido[1,2-a]pyrimidin-4-one] | 200 to 203 | < 0.1 | **** (an EC1.5x≤0.3 μM is indicated by four stars (****)) | ***** (a fold increase >1.65 is indicated by five stars (*****)) |
| Cn1cc2cc(-c3cc(=O)n4cc(N5CCNCC5)ncc4n3)ccc2n1 [Compound 586, 2-(2-methyl-2H-indazol-5-yl)-7-(piperazin-1-yl)-4H-pyrazino[1,2-a]pyrimidin-4-one] | 160 to 162 | 0.1 to 0.3 | **** (an EC1.5x≤0.3 μM is indicated by four stars (****)) | ***** (a fold increase >1.65 is indicated by five stars (*****)) |
| CCN1CCN(c2cn3c(=O)cc(-c4ccc5nn(C)cc5c4)nc3cn2)CC1 [Compound 590, 7-(4-ethylpiperazin-1-yl)-2-(2-methyl-2H-indazol-5-yl)-4H-pyrazino[1,2-a]pyrimidin-4-one] | 214 to 216 | 0.3 to 1 | ** (an EC1.5× between >1 μM and ≤3 μM is indicated by two stars (**)) | **** (a fold increase between >1.5 and ≤1.65 is indicated by four stars (****)) |
